Test results: patent US10328066B2, “Pharmaceutical combination comprising the PI3K inhibitor alpelisib and the CDK4/6 inhibitor ribociclib, and the use thereof in the treatment/prevention of cancer” (Novartis AG, priority 2015, dated 2019)

How the values were obtained:
Assay type in all cases: cell-based
[1] = tested on: 15 colorectal cancer cell lines; assay: In vitro proliferation, summary over the cell line panel; settings: single agents
Experimental: (§1) COMPOUNDS A, B, and C were dissolved in 100% DMSO (Sigma, Catalog number D2650) at concentrations of 20 mM and stored at −20° C. until use. Compounds were arrayed in drug master plates (Greiner, Catalog number 788876) and serially diluted 3-fold (7 steps) at 2000× concentration.
(§2) Colorectal cancer cell lines used for this study were obtained, cultured and processed from commercial vendors ATCC, CellBank Australia, DMSZ, ECACC, and HSRRB (Table 1). All cell line media were supplemented with 10% FBS (HyClone, Catalog number SH30071.03). Media for LIM2551 was additionally supplemented with 0.6 μg/mL Insulin (SIGMA, Catalog number 19278), 1 μg/mL Hydrocortisone (SIGMA, Catalog number H0135), and 10 μM 1-Thioglycerol (SIGMA, Catalog number M6145).
(§3) Cell lines were cultured in 37° C. and 5% CO2 incubator and expanded in T-75 flasks. In all cases cells were thawed from frozen stocks, expanded through ≥1 passage using 1:3 dilutions, counted and assessed for viability using a ViCell counter (Beckman-Coulter) prior to plating. To split and expand cell lines, cells were dislodged from flasks using 0.25% Trypsin-EDTA (GIBCO, Catalog number 25200). All cell lines were determined to be free of mycoplasma contamination as determined by a PCR detection methodology performed at Idexx Radil (Columbia, Mo., USA) and correctly identified by detection of a panel of SNPs.
To test the effect of the combination of COMPOUND A, COMPOUND B, and COMPOUND C on cell proliferation cells were plated in black 384-well microplates with clear bottom (Matrix/Thermo Scientific, Catalog number 4332) in 50 μL media per well at cell densities between 500 and 1250 cells/well (Table 1) and allowed to incubate at 37 degrees, 5% CO2 for 24 h. […] Caspase 3/7 induction was measured as a proxy for apoptosis induced by the treatments. Cells were treated for 72 h to 96 h depending on their doubling time (Table 1), and Caspase 3/7 activation was measured every 24 h by microscopy using an InCell Analyzer 2000 (GE Healthcare) equipped with a 4× objective and FITC excitation/emission filters. […]

[2] = tested on: LoVo; assay: In vitro proliferation (cell count by microscopy), single agents and combination; settings: Homo sapiens; LoVo (KRAS), 96 h treatment; 50% of cell counts relative to DMSO
Experimental: as §1, §2, §3
(§4) To test the effect of the combination of COMPOUND A, COMPOUND B, and COMPOUND C on cell proliferation cells were plated in black 384-well microplates with clear bottom (Matrix/Thermo Scientific, Catalog number 4332) in 50 μL media per well at cell densities between 500 and 1250 cells/well (Table 1) and allowed to incubate at 37 degrees, 5% CO2 for 24 h. After 24 h one 384-well plate per cell line was prepared for cell counting by microscopy (see below) without receiving treatment (=‘baseline’). The other cell plates were treated by transferring 25 nL of the 2000× compound from drug master plates using an ATS acoustic liquid dispenser (ECD Biosystems) and resulting in a final 1× concentration. COMPOUND A was used over a final concentration range of 13 nM-10 μM, COMPOUND B was used over a final concentration range of 13 nM-10 μM, and COMPOUND C was used over a final concentration range of 27 nM-20 μM (7 1:3 dilution steps). In order to assess the effect of the triple combination all individual COMPOUNDS (A, B, C), all three pair wise combinations (A+B, A+C, B+C), and the triple combination (A+B+C) were tested in the same experiment. Pair wise combinations and the triple combination were tested at a fixed ratio of 1:1 (for drug pairs) and 1:1:1 (for the drug triple) at each dilution resulting in 7 combination conditions per treatment. […] After compound addition 50 nL of 2 mM CellEvent Caspase-3/7 Green Detection Reagent (ThermoFisher, Catalog number C10423) were added to one of the three replicates using the HP D300 Digital Dispenser (Tecan). Caspase 3/7 induction was measured as a proxy for apoptosis induced by the treatments. Cells were treated for 72 h to 96 h depending on their doubling time (Table 1), and Caspase 3/7 activation was measured every 24 h by microscopy using an InCell Analyzer 2000 (GE Healthcare) equipped with a 4× objective and FITC excitation/emission filters. At the end of the treatment cells were prepared for cell counting by microscopy. Cells were fixed and permeabilised for 45 minutes in 4% PFA (Electron Microscopy Sciences, Catalog number 15714), 0.12% TX-100 (Electron Microscopy Sciences, Catalog number 22140) in PBS (Boston Bioproducts, Catalog number BM-220). After washing cells three times with PBS their DNA was stained for 30 minutes with Hoechst 33342 (ThermoFisher, Catalog number H3570) at a final concentration of 4 μg/mL. Cells were washed three times with PBS and then plates were heat-sealed using a PlateLoc (Agilent Technologies) with aluminum seals (Agilent Technologies, Catalog number 06644-001) and stored at 4° C. until imaging. […]

[3] = tested on: GP2d; assay: as above; settings: GP2d (KRAS, PIK3CA), 72 h treatment; 50% of cell counts relative to DMSO
Experimental: as §1, §2, §3, §4

[4] = tested on: RKO; assay: as above; settings: Homo sapiens; RKO (BRAF, PIK3CA), 72 h treatment; 50% of cell counts relative to DMSO
Experimental: as §1, §2, §3, §4

[5] = tested on: DLD-1; assay: as above; settings: Homo sapiens; DLD-1 (KRAS, PIK3CA), 72 h treatment; 50% of cell counts relative to DMSO
Experimental: as §1, §2, §3, §4

[6] = tested on: NCI-H508; assay: as above; settings: Homo sapiens; NCI-H508 (PIK3CA), 72 h treatment; 50% of cell counts relative to DMSO
Experimental: as §1, §2, §3, §4

[7] = tested on: SW837; assay: as above; settings: Homo sapiens; SW837 (KRAS), 72 h treatment; 50% of cell counts relative to DMSO
Experimental: as §1, §2, §3, §4

[8] = tested on: COLO-320; assay: as above; settings: Homo sapiens; COLO-320 (no driver mutation listed), 72 h treatment; 50% of cell counts relative to DMSO
Experimental: as §1, §2, §3, §4

[9] = tested on: HCT-116; assay: as above; settings: Homo sapiens; HCT-116 (KRAS, PIK3CA), 72 h treatment; 50% of cell counts relative to DMSO
Experimental: as §1, §2, §3, §4

[10] = tested on: LS411N; assay: as above; settings: Homo sapiens, LS-411N; LS411N (BRAF), 72 h treatment; 50% of cell counts relative to DMSO
Experimental: as §1, §2, §3, §4

[11] = tested on: LIM2551; assay: as above; settings: LIM2551 (BRAF, PIK3CA), 72 h treatment; 50% of cell counts relative to DMSO
Experimental: as §1, §2, §3, §4

[12] = tested on: SW480; assay: as above; settings: Homo sapiens; SW480 (KRAS), 72 h treatment; 50% of cell counts relative to DMSO
Experimental: as §1, §2, §3, §4

[13] = tested on: HT-29; assay: as above; settings: Homo sapiens; HT-29 (BRAF, PIK3CA), 72 h treatment; 50% of cell counts relative to DMSO
Experimental: as §1, §2, §3, §4

[14] = tested on: OUMS-23; assay: as above; settings: OUMS-23 (BRAF), 72 h treatment; 50% of cell counts relative to DMSO
Experimental: as §1, §2, §3, §4

[15] = tested on: COLO-205; assay: as above; settings: Homo sapiens; COLO-205 (BRAF), 72 h treatment; 50% of cell counts relative to DMSO
Experimental: as §1, §2, §3, §4

[16] = tested on: LS-180; assay: as above; settings: Homo sapiens, LS180; LS-180 (KRAS, PIK3CA), 72 h treatment; 50% of cell counts relative to DMSO
Experimental: as §1, §2, §3, §4

Row | Structure (SMILES) | IC50 values across the cell lines (summary in words) [1] | IC50 [2] [µM] | IC50 [3] [µM] | IC50 [4] [µM] | IC50 [5] [µM] | IC50 [6] [µM] | IC50 [7] [µM] | IC50 [8] [µM] | IC50 [9] [µM] | IC50 [10] [µM] | IC50 [11] [µM] | IC50 [12] [µM] | IC50 [13] [µM] | IC50 [14] [µM] | IC50 [15] [µM] | IC50 [16] [µM]
1 | CN(C)C(=O)c1cc2cnc(Nc3ccc(N4CCNCC4)cn3)nc2n1C1CCCC1 [COMPOUND B, 7-Cyclopentyl-2-(5-piperazin-1-yl-pyridin-2-ylamino)-7H-pyrrolo[2,3-d]pyrimidine-6-carboxylic acid dimethylamide] | mostly micromolar IC50 values |  |  |  |  |  |  |  |  |  |  |  |  |  |  | 
2 | Cc1nc(NC(=O)N2CCC[C@H]2C(N)=O)sc1-c1ccnc(C(C)(C)C(F)(F)F)c1 [COMPOUND A, (S)-Pyrrolidine-1,2-dicarboxylic acid 2-amide 1-({4-methyl-5-[2-(2,2,2-trifluoro-1,1-dimethyl-ethyl)-pyridin-4-yl]-thiazol-2-yl}-amide)] | mostly micromolar IC50 values |  |  |  |  |  |  |  |  |  |  |  |  |  |  | 
3 | O=c1[nH]cc(F)c(=O)[nH]1 [COMPOUND C, 5-fluoro-2,4-(1H,3H) pyrimidinedione] | micromolar IC50s in all but one cell line (SW480) | 5.6 | 3.2 | 2.1 | 6.6 | 3.3 | 7.7 | 2.4 | 5.6 | 4.1 | 4.2 | > 20 | 7.4 | 10.4 | 0.6 | 14
